Test results from patent publication US7026354B2 (priority 2001, dated 2006).
Several values for one entry are separate records, joined by “and”; a condition that tells them apart may be missing. Equal entries are not always repeated. Where two headings read alike, the source gives them in different places.

Assays:
Assay type in all cases: cell-based
S. aureus (MN8) [1] = tested on: S. aureus (MN8)
S. aureus (MN8) [2] = tested on: S. aureus (MN8); remark: listed apart in the source
S. aureus FRI-1187 [3] = settings: for ELISA: TSST-1 ng/OD unit / Reduction of Toxin %: Table 5, FRI-1187
S. aureus FRI-1187 [4] = tested on: S. aureus FRI-1187
S. aureus strain RN 6390 = tested on: S. aureus strain RN 6390
S. aureus FRI-1169 [5] = tested on: S. aureus FRI-1169
S. aureus FRI-1169 [6] = tested on: S. aureus FRI-1169; remark: listed apart in the source
[7] = Table 1, 0.5% test compound, 24 h
[8] = Table 1, 0.5% test compound, vs control
[9] = Table 6, Cetiol 1414E 0, PEA 0.05%
[10] = Table 6, Cetiol 1414E 0, PEA 0.15%
[11] = Table 6, Cetiol 1414E 0, PEA 0.3%
[12] = Table 6, Cetiol 1414E 0, PEA 0.5%
[13] = Table 10, Cetiol 2.5 mM, PABA 0%
[14] = Table 10, Cetiol 10 mM, PABA 0%

NC(=O)c1ccccc1O [2-hydroxybenzamide]
CFU/mL (S. aureus (MN8) [1]; 24 h): 9.0E+07 CFU/mL | Optical Density (S. aureus (MN8) [1]; 24 h, 600 nm): 0.549 | ELISA: TSST-1 ng/OD unit (S. aureus (MN8) [2]; Table 1, 1.0% test compound, 24 h): 65 ng/OD unit | Reduction of Toxin % (S. aureus (MN8) [2]; Table 1, 1.0% test compound, vs control): 95%

O=C(O)c1ccccc1O [2-hydroxybenzoic acid]
CFU/mL (S. aureus (MN8) [1]): 1.48E+09 CFU/mL | Optical Density (S. aureus (MN8) [1]): 0.682 | ELISA: TSST-1 ng/OD unit (S. aureus (MN8) [2]; Table 2, 0.2% test compound): 193 ng/OD unit

CC(=O)Nc1ccc(O)cc1 [4-Acetamidophenol]
CFU/mL (S. aureus (MN8) [1]): 2.4E+09 CFU/mL | Optical Density (S. aureus (MN8) [1]): 0.629 | ELISA: TSST-1 ng/OD unit (S. aureus (MN8) [2]; Table 4, 0.5% test compound): 230 ng/OD unit

CC(=O)N[C@@H](Cc1ccc(O)cc1)C(=O)O [Acetyl tyrosine]
CFU/mL (S. aureus (MN8) [1]): 1.7E+09 CFU/mL | Optical Density (S. aureus (MN8) [1]): 0.549 | ELISA: TSST-1 ng/OD unit (S. aureus (MN8) [2]; Table 3, 0.5% test compound): 436 ng/OD unit

OCc1ccccc1 [Benzyl alcohol]
CFU/mL (S. aureus (MN8) [1]; 24 h): 1.8E+08 CFU/mL | Optical Density (S. aureus (MN8) [1]; 24 h, 600 nm): 0.792 | ELISA: TSST-1 ng/OD unit (S. aureus (MN8) [2]; [7]): 131 ng/OD unit | Reduction of Toxin % (S. aureus (MN8) [2]; [8]): 91%

O=C(O)c1cc(O)c(O)c(O)c1 [Gallic acid]
CFU/mL (S. aureus (MN8) [1]): 1.2E+09 CFU/mL | Optical Density (S. aureus (MN8) [1]): 0.492 | ELISA: TSST-1 ng/OD unit (S. aureus (MN8) [2]; Table 3, 0.5% test compound): 63 ng/OD unit

OCCc1ccccc1 [Phenylethyl alcohol]
Log CFU/mL (S. aureus (MN8) [1]): 8.6 Log CFU/mL and 8.7 Log CFU/mL and 8.5 Log CFU/mL | OD (S. aureus (MN8) [1]): 0.712 and 0.730 and 0.758 and 0.721 | Optical Density (S. aureus (MN8) [1]): 0.542 and 0.551 and 0.476 and 0.554 | reduction of the amount of exotoxin production (S. aureus FRI-1187 [3]): significantly reduced | ELISA: TSST-1 ng/OD unit (S. aureus FRI-1187 [3]; 0.25% test compound): 1 ng/OD unit | Reduction of Toxin % (S. aureus FRI-1187 [3]; 0.25% test compound): 98% | ELISA: TSST-1 ng/OD unit (S. aureus FRI-1187 [3]; 0.5% test compound): none detected | Reduction of Toxin % (S. aureus FRI-1187 [3]; 0.5% test compound): 100% | Optical Density (S. aureus FRI-1187 [4]): 1.296 and 1.244 | effect on the growth of S. aureus cells (S. aureus FRI-1187 [4]): minimal, if any, effect on the growth | Hemolytic Endpoint 50% lysis (S. aureus strain RN 6390): None Detected | production of alpha toxin (S. aureus strain RN 6390): significantly reduced | % Toxin Inhibition (S. aureus strain RN 6390; Table 7, 0.3% test compound): 97% | Hemolytic Endpoint 50% lysis (S. aureus strain RN 6390; Table 7, 0.3% test compound, reciprocal of the dilution giving 50% lysis): 3 | % Toxin Inhibition (S. aureus strain RN 6390; Table 7, 0.4% test compound): 100% | Optical Density (S. aureus FRI-1169 [5]): 1.263 and 1.208 | effect on the growth of S. aureus cells (S. aureus FRI-1169 [5]): minimal, if any, effect on the growth | % Reduction (S. aureus (MN8) [2]): 57% and 80% and 93% and 98% | ELISA: TSST-1 ng/OD unit (S. aureus (MN8) [2]; [7]): 60 ng/OD unit | Reduction of Toxin % (S. aureus (MN8) [2]; [8]): 96% | ELISA: TSST-1 ng/OD unit (S. aureus (MN8) [2]; Table 2, 0.5% test compound): 68 ng/OD unit | ELISA: TSST-1 ng/OD unit (S. aureus (MN8) [2]; Table 3, 0.5% test compound): 46 ng/OD unit | ELISA: TSST-1 ng/OD unit (S. aureus (MN8) [2]; Table 4, 0.5% test compound): 25 ng/OD unit | Reduction of Toxin % (S. aureus (MN8) [2]; [9]): 32% | ng TSST-1 per CFU (S. aureus (MN8) [2]; [9]): 266 ng per CFU | ng TSST-1 per mL (S. aureus (MN8) [2]; [9]): 826 ng per mL | Reduction of Toxin % (S. aureus (MN8) [2]; [10]): 67% | ng TSST-1 per CFU (S. aureus (MN8) [2]; [10]): 129 ng per CFU | ng TSST-1 per mL (S. aureus (MN8) [2]; [10]): 561 ng per mL | Reduction of Toxin % (S. aureus (MN8) [2]; [11]): 90% | ng TSST-1 per CFU (S. aureus (MN8) [2]; [11]): 39 ng per CFU | ng TSST-1 per mL (S. aureus (MN8) [2]; [11]): 201 ng per mL | Reduction of Toxin % (S. aureus (MN8) [2]; [12]): 93% | ng TSST-1 per CFU (S. aureus (MN8) [2]; [12]): 27 ng per CFU | ng TSST-1 per mL (S. aureus (MN8) [2]; [12]): 106 ng per mL | ng TSST-1/OD (S. aureus (MN8) [2]; Table 9, Glucopon 0 mM, PEA 0.05%): 323 ng/OD | ng TSST-1/OD (S. aureus (MN8) [2]; Table 9, Glucopon 0 mM, PEA 0.15%): 152 ng/OD | ng TSST-1/OD (S. aureus (MN8) [2]; Table 9, Glucopon 0 mM, PEA 0.3%): 54 ng/OD | ng TSST-1/OD (S. aureus (MN8) [2]; Table 9, Glucopon 0 mM, PEA 0.50%): 13 ng/OD | Reduction of Toxin % (S. aureus FRI-1169 [6]): 99% and 95%

O=C(O)/C=C/c1ccccc1 [Trans-cinnamic acid]
CFU/mL (S. aureus (MN8) [1]): 1.7E+09 CFU/mL | Optical Density (S. aureus (MN8) [1]): 0.549 | ELISA: TSST-1 ng/OD unit (S. aureus (MN8) [2]; Table 3, 0.5% test compound): 436 ng/OD unit

Nc1ccc(C(=O)O)cc1 [p-aminobenzoic acid]
CFU/mL (S. aureus (MN8) [1]): 1.1E+09 CFU/mL and 1.53E+09 CFU/mL and 1.85E+09 CFU/mL and 1.79E+09 CFU/mL and 1.15E+09 CFU/mL | OD (S. aureus (MN8) [1]): 0.546 and 0.558 and 0.599 and 0.589 | Optical Density (S. aureus (MN8) [1]): 0.618 | ELISA: TSST-1 ng/OD unit (S. aureus (MN8) [2]; Table 2, 0.2% test compound): 317 ng/OD unit | ng TSST-1/OD (S. aureus (MN8) [2]; Table 10, Cetiol 0 mM, PABA 0.05%): 5670 ng/OD | ng TSST-1/OD (S. aureus (MN8) [2]; Table 10, Cetiol 0 mM, PABA 0.09%): 3389 ng/OD | ng TSST-1/OD (S. aureus (MN8) [2]; Table 10, Cetiol 0 mM, PABA 0.19%): 1975 ng/OD | ng TSST-1/OD (S. aureus (MN8) [2]; Table 10, Cetiol 0 mM, PABA 0.38%): 1039 ng/OD

COC(=O)c1ccc(O)cc1 [p-hydroxybenzoic acid, methyl ester]
CFU/mL (S. aureus (MN8) [1]): >1.5E+08 CFU/mL | Optical Density (S. aureus (MN8) [1]): 0.356 | production of alpha toxin (S. aureus strain RN 6390): significantly reduced | % Toxin Inhibition (S. aureus strain RN 6390; Table 8, 0.1% test compound): 70% | Hemolytic Endpoint 50% lysis (S. aureus strain RN 6390; Table 8, 0.1% test compound, reciprocal of the dilution giving 50% lysis): 79 | % Toxin Inhibition (S. aureus strain RN 6390; Table 8, 0.2% test compound): 94% | Hemolytic Endpoint 50% lysis (S. aureus strain RN 6390; Table 8, 0.2% test compound, reciprocal of the dilution giving 50% lysis): 16 | ELISA: TSST-1 ng/OD unit (S. aureus (MN8) [2]; Table 2, 0.2% test compound): 506 ng/OD unit

myreth-3 myristate [Cetiol 1414E]
Log CFU/mL (S. aureus (MN8) [1]): 8.6 Log CFU/mL and 8.5 Log CFU/mL | OD (S. aureus (MN8) [1]): 0.881 and 0.976 and 0.637 | ng TSST-1 per CFU (S. aureus (MN8) [2]; Table 6, Cetiol 1414E 2.5 mM, PEA 0): 239 ng per CFU | ng TSST-1 per CFU (S. aureus (MN8) [2]; Table 6, Cetiol 1414E 5 mM, PEA 0): 172 ng per CFU | ng TSST-1 per CFU (S. aureus (MN8) [2]; Table 6, Cetiol 1414E 10 mM, PEA 0): 61 ng per CFU | % Reduction (S. aureus (MN8) [2]; [13]): 31% | ng TSST-1/OD (S. aureus (MN8) [2]; [13]): 3367 ng/OD | % Reduction (S. aureus (MN8) [2]; Table 10, Cetiol 5 mM, PABA 0%): 51% | ng TSST-1/OD (S. aureus (MN8) [2]; Table 10, Cetiol 5 mM, PABA 0%): 2419 ng/OD | % Reduction (S. aureus (MN8) [2]; [14]): 53% | ng TSST-1/OD (S. aureus (MN8) [2]; [14]): 2286 ng/OD
